Test results: PubChem BioAssay AID256 (DTP/NCI, 2004)
Values joined by “and” are separate entries in the source; they are usually repeats but may differ in a detail not shown here. Equal entries are not always repeated. Inconclusive results and toxic doses are left out. How the source made its calls: active means survival T/C of 150% or more; inactive means T/C below 125% in these data.

Test system: CD2F1 mice, L1210 leukemia ip, survival T/C
Assay: NCI In Vivo Anticancer Drug Screen. Data for tumor model L1210 Leukemia (intraperitoneal) in CD2F1 (CDF1) mice
Details: endpoint: mean survival time, higher = longer survival
Outline: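 In this screen, transplantable tumors were grown in mice given either the compound or its vehicle. Results were expressed as the treated measurement relative to the control measurement.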

[1] = dose: 100.0 mg/kg/injection, schedule: Q01DX001 (ip), vehicle: Klucel (hydroxypropylcellulose) (HPC)
[2] = dose: 100.0 mg/kg/injection, schedule: Q04DX002 (ip), vehicle: saline with Tween-80
[3] = dose: 200.0 mg/kg/injection, schedule: Q04DX002 (ip), vehicle: saline with Tween-80
[4] = dose: 400.0 mg/kg/injection, schedule: Q04DX002 (ip), vehicle: saline with Tween-80
[5] = dose: 25.0 mg/kg/injection, schedule: Q01DX009 (ip), vehicle: saline with Tween-80
[6] = dose: 50.0 mg/kg/injection, schedule: Q01DX009 (ip), vehicle: saline with Tween-80
[7] = dose: 100.0 mg/kg/injection, schedule: Q01DX009 (ip), vehicle: saline with Tween-80
[8] = dose: 100.0 mg/kg/injection, schedule: Q04DX003 (ip), vehicle: saline with Tween-80
[9] = dose: 200.0 mg/kg/injection, schedule: Q01DX009 (ip), vehicle: saline with Tween-80
[10] = dose: 200.0 mg/kg/injection, schedule: Q04DX003 (ip), vehicle: saline with Tween-80
[11] = dose: 400.0 mg/kg/injection, schedule: Q04DX003 (ip), vehicle: saline with Tween-80
[12] = dose: 100.0 mg/kg/injection, schedule: Q01DX001 (ip), vehicle: saline with Tween-80
[13] = dose: 200.0 mg/kg/injection, schedule: Q01DX001 (ip), vehicle: saline with Tween-80
[14] = dose: 400.0 mg/kg/injection, schedule: Q01DX001 (ip), vehicle: saline with Tween-80
[15] = dose: 400.0 mg/kg/injection, schedule: Q01DX009 (ip), vehicle: saline with Tween-80

Measured: T/C

Cc1nocc1CC1=C2CCCC(=O)C2(C)CCC1=O (stereo not drawn)
inactive: dose: 100.0 mg/kg/injection, schedule: Q01DX001 (ip), vehicle: alcohol 94 % of control | dose: 200.0 mg/kg/injection, schedule: Q01DX001 (ip), vehicle: alcohol 92 % of control | dose: 400.0 mg/kg/injection, schedule: Q01DX001 (ip), vehicle: alcohol 95 % of control

CC(=O)c1ccc([NH-])c([NH-])c1.[Cl][Pt+2][Cl]
inactive: dose: 2.5 mg/kg/injection, schedule: Q01DX009 (ip), vehicle: distilled water + Tween-80 102 % of control | dose: 5.0 mg/kg/injection, schedule: Q01DX009 (ip), vehicle: distilled water + Tween-80 104 % of control | dose: 10.0 mg/kg/injection, schedule: Q01DX009 (ip), vehicle: distilled water + Tween-80 109 % of control and 112 % of control | dose: 20.0 mg/kg/injection, schedule: Q01DX009 (ip), vehicle: distilled water + Tween-80 114 % of control

CC(C)C(C)/C=C\C(C)C1CCC2C3=CCC4CC(=O)CCC4(C)C3CCC21C (stereo not drawn)
inactive: dose: 25.0 mg/kg/injection, schedule: Q01DX001 (ip), vehicle: Klucel (hydroxypropylcellulose) (HPC) 103 % of control | dose: 50.0 mg/kg/injection, schedule: Q01DX001 (ip), vehicle: Klucel (hydroxypropylcellulose) (HPC) 96 % of control | [1] 103 % of control

C[CH2][Sn]1([CH2]C)[O]OC(c2ccccc2)[O]1 (stereo not drawn)
inactive: dose: 0.78 mg/kg/injection, schedule: Q01DX009 (ip), vehicle: saline with Tween-80 106 % of control | dose: 1.56 mg/kg/injection, schedule: Q01DX009 (ip), vehicle: saline with Tween-80 96 % of control | dose: 3.12 mg/kg/injection, schedule: Q01DX009 (ip), vehicle: saline with Tween-80 98 % of control | dose: 6.25 mg/kg/injection, schedule: Q01DX009 (ip), vehicle: saline with Tween-80 106 % of control | dose: 12.5 mg/kg/injection, schedule: Q01DX009 (ip), vehicle: saline with Tween-80 112 % of control

OCCN(Cc1ccccc1)C(c1ccccc1)c1ccccc1
inactive: dose: 100.0 mg/kg/injection, schedule: Q04DX003 (ip), vehicle: Klucel (hydroxypropylcellulose) (HPC) 91 % of control | dose: 200.0 mg/kg/injection, schedule: Q04DX003 (ip), vehicle: Klucel (hydroxypropylcellulose) (HPC) 97 % of control | dose: 400.0 mg/kg/injection, schedule: Q04DX003 (ip), vehicle: Klucel (hydroxypropylcellulose) (HPC) 97 % of control

CC1(C)OC2C(COC(=O)Oc3ccccc3)OC(n3cnc4c(=O)[nH]c(N)nc43)C2O1 (stereo not drawn)
inactive: [1] 92 % of control | dose: 200.0 mg/kg/injection, schedule: Q01DX001 (ip), vehicle: Klucel (hydroxypropylcellulose) (HPC) 93 % of control | dose: 400.0 mg/kg/injection, schedule: Q01DX001 (ip), vehicle: Klucel (hydroxypropylcellulose) (HPC) 92 % of control

CCN1C(=O)/C(=C\C=C2/SCCN2C)OC1=S
inactive: dose: 75.0 mg/kg/injection, schedule: Q01DX001 (ip), vehicle: other 92 % of control | dose: 150.0 mg/kg/injection, schedule: Q01DX001 (ip), vehicle: other 100 % of control | dose: 300.0 mg/kg/injection, schedule: Q01DX001 (ip), vehicle: other 94 % of control

COc1cc([N+](=O)[O-])c(C)[n+]([O-])n1
inactive: dose: 25.0 mg/kg/injection, schedule: Q04DX002 (ip), vehicle: saline with Tween-80 96 % of control | dose: 50.0 mg/kg/injection, schedule: Q04DX002 (ip), vehicle: saline with Tween-80 104 % of control

Cc1ccccc1NC(=O)Oc1c(Cl)cc(Cl)c2ccccc12
inactive: [2] 89 % of control | [3] 93 % of control | [4] 101 % of control

COc1ccc(/C=C(/C)C(=O)c2ccccc2)cc1
inactive: dose: 100.0 mg/kg/injection, schedule: Q01DX009 (ip), vehicle: Klucel (hydroxypropylcellulose) (HPC) 97 % of control | dose: 200.0 mg/kg/injection, schedule: Q01DX009 (ip), vehicle: Klucel (hydroxypropylcellulose) (HPC) 97 % of control | dose: 400.0 mg/kg/injection, schedule: Q01DX009 (ip), vehicle: Klucel (hydroxypropylcellulose) (HPC) 91 % of control

CC1=CCC(C(C)(C)c2ccc(O)cc2)CC1 (stereo not drawn)
inactive: [5] 94 % of control | [6] 110 % of control | [7] 98 % of control | [8] 90 % of control | [9] 96 % of control | [10] 104 % of control | [11] 90 % of control

COc1ccc(C(CO)CC(=O)NCCN(C)C)cc1 (stereo not drawn)
inactive: dose: 100.0 mg/kg/injection, schedule: Q04DX002 (ip), vehicle: saline 100 % of control | dose: 200.0 mg/kg/injection, schedule: Q04DX002 (ip), vehicle: saline 107 % of control

CSCCC(C)(C)C
inactive: dose: 75.0 mg/kg/injection, schedule: Q01DX001 (ip), vehicle: saline 103 % of control

CCc1c2cc(OC)c(OC)cc2cc2c3cc(OC)c(OC)cc3cc[n+]12 (tested in a mixture with another compound)
inactive: dose: 14.6 mg/kg/injection, schedule: Q01DX009 (ip), vehicle: saline with Tween-80 120 % of control | dose: 33.0 mg/kg/injection, schedule: Q01DX009 (ip), vehicle: saline with Tween-80 117 % of control | dose: 50.0 mg/kg/injection, schedule: Q01DX009 (ip), vehicle: saline 122 % of control | dose: 50.0 mg/kg/injection, schedule: Q04DX003 (ip), vehicle: saline 122 % of control | dose: 100.0 mg/kg/injection, schedule: Q01DX009 (ip), vehicle: saline 104 % of control | dose: 100.0 mg/kg/injection, schedule: Q04DX003 (ip), vehicle: saline 121 % of control and 123 % of control | dose: 200.0 mg/kg/injection, schedule: Q04DX003 (ip), vehicle: saline 101 % of control | dose: 400.0 mg/kg/injection, schedule: Q04DX003 (ip), vehicle: saline 121 % of control and 98 % of control

N#CCC(=O)NN=C1CCCCC1
inactive: dose: 100.0 mg/kg/injection, schedule: Q01DX001 (ip), vehicle: saline 102 % of control | dose: 200.0 mg/kg/injection, schedule: Q01DX001 (ip), vehicle: saline 123 % of control | dose: 400.0 mg/kg/injection, schedule: Q01DX001 (ip), vehicle: saline 107 % of control

Clc1n[nH]c(Cl)n1
inactive: [5] 97 % of control | [6] 100 % of control | [7] 89 % of control | [8] 86 % of control

O=C(COc1cccc(Cl)c1)NCc1ccccc1NC(=O)Nc1cccc(S(=O)(=O)F)c1
inactive: [12] 88 % of control | [13] 89 % of control | [14] 94 % of control

C=C1C(=O)O[C@@H]2[C@H](O)[C@@H](C)[C@@H]3C=CC(=O)[C@@]3(C)[C@H](OC(=O)C=C(C)C)[C@H]12
inactive: dose: 1.25 mg/kg/injection, schedule: Q01DX009 (ip), vehicle: saline with Tween-80 100 % of control | dose: 2.5 mg/kg/injection, schedule: Q01DX009 (ip), vehicle: saline with Tween-80 102 % of control | dose: 5.0 mg/kg/injection, schedule: Q01DX009 (ip), vehicle: saline with Tween-80 108 % of control | dose: 10.0 mg/kg/injection, schedule: Q01DX009 (ip), vehicle: saline with Tween-80 106 % of control | dose: 20.0 mg/kg/injection, schedule: Q01DX009 (ip), vehicle: saline with Tween-80 89 % of control

CSc1nc(N)cc(N)n1
inactive: [7] 98 % of control | [8] 98 % of control | [9] 95 % of control | [10] 97 % of control | [15] 100 % of control | [11] 102 % of control

CC1(C(=O)c2ccccc2)OC1c1ccccc1 (stereo not drawn)
inactive: dose: 100.0 mg/kg/injection, schedule: Q04DX003 (ip), vehicle: acetone 103 % of control | dose: 200.0 mg/kg/injection, schedule: Q04DX003 (ip), vehicle: acetone 103 % of control | dose: 400.0 mg/kg/injection, schedule: Q04DX003 (ip), vehicle: acetone 98 % of control

COC(=O)C(CSCc1ccccc1)NC(=O)C(C)NC(=O)OCc1ccccc1 (stereo not drawn)
inactive: [7] 88 % of control | [9] 92 % of control | [15] 92 % of control

O=C(O)/C=C/C(=O)O
inactive: [12] 93 % of control and 88 % of control | [8] 100 % of control | [13] 94 % of control | [14] 91 % of control

COc1cc([N+](=O)[O-])ccc1NC(=O)N1CCCC(C)C1 (stereo not drawn)
inactive: [12] 94 % of control and 95 % of control | [7] 88 % of control and 93 % of control | [2] 98 % of control | [8] 101 % of control | [13] 86 % of control and 89 % of control | [9] 95 % of control and 106 % of control | [3] 98 % of control | [10] 103 % of control | [14] 86 % of control | [15] 88 % of control and 98 % of control | [4] 96 % of control | [11] 100 % of control
